Earlier results as cited in patent US20120157405A1, “Methods and Compositions for the Treatment of "Burning Feet Syndrome"” (priority 2010, published 2012).
Where two headings read alike, the source gives them in different places.

Key:
“Burning Feet Syndrome” [1] = details: 53 cases; parenteral calcium pantothenate given after the other vitamins
“Burning Feet Syndrome” [2] = details: 6 mg intramuscular injections
[3] = tested on: sciatic pain caused by herniated disc
[4] = tested on: Diabetes-Induced Oxidative Stress In Gastrointestinal Tissues; details: exogenously administered, diabetic rats
[5] = tested on: jejunal transport of water, Na and Cl; details: in vivo jejunal perfusion
mild diabetic neuropathy = details: 480 mg daily, after 12 months
[6] = tested on: peripheral neuropathy symptoms; details: niacin alone
skin irritation = details: topical adjunct skin care
diabetic neuropathy [7] = details: animal studies
[8] = tested on: streptozotocin-induced diabetic rats; details: 1.4 to 1.5 g/kg body weight, 7 weeks
[9] = tested on: nerve conduction and function; details: 900 mg, six-month study
peripheral neuropathy = details: daily high-dose supplementation for two years, person
neuropathic pain = details: double-blind study
diabetic neuropathy [10] = details: double-blind trial
[11] = tested on: symptomatic diabetic polyneuropathy; details: symptomatic diabetic polyneuropathy and compressive radiculopathy syndrome from disc-nerve root conflict
[12] = tested on: symptomatic diabetic polyneuropathy
vitamin B12 deficiency = details: oral supplementation only
[13] = tested on: neuropathy associated with some chemotherapy drugs; details: two studies
[14] = tested on: chemically induced diabetic rats
[15] = tested on: cardiac autonomic neuropathy; details: people with diabetes
diabetic neuropathy [16] = details: over a one-year period
[17] = tested on: neuropathy associated with diabetes
[18] = tested on: severe diabetic peripheral neuropathy
[19] = tested on: complications among the major targets of diabetes; details: in vivo
[20] = tested on: painful peripheral diabetic neuropathy; details: 320 mg/day compared to 150 mg/day, over 6 weeks
[21] = after one year of treatment, all patients

calcium pantothenate
outcome of treatment of “Burning Feet Syndrome” (“Burning Feet Syndrome” [1]): cure

Cc1cc2nc3c(=O)[nH]c(=O)nc-3n(C[C@H](O)[C@H](O)[C@H](O)CO)c2cc1C [riboflavin]
outcome of treatment of “Burning Feet Syndrome” (“Burning Feet Syndrome” [1]): failed
adverse reactions (“Burning Feet Syndrome” [2]): no reported adverse reactions
time until the burning pain subsided (“Burning Feet Syndrome” [2]): ≤ 3 days

O=C(O)CCCCC1CCSS1 (centres unmarked) [Thioctic acid]
treatment of sciatic pain [3]: appears to be effective

N=C(N)NCCC[C@H](N)C(=O)O [L-arginine]
oxidative stress in the gastrointestinal tract [4]: decrease the oxidative stress in the gastrointestinal tract
jejunal transport of water, Na and Cl [5]: dose-dependent pro-secretor effect

CCCCC/C=C\C/C=C\C/C=C\CCCCC(=O)O [GLA, gamma linolenic acid]
outcome versus placebo group (mild diabetic neuropathy): significantly better than the placebo group

O=C(O)c1cccnc1 [niacin]
peripheral neuropathy symptoms [6]: does not help peripheral neuropathy symptoms

CC(C)(CO)[C@@H](O)C(=O)NCCCO [dexpanthenol]
symptoms of skin irritation (dryness, roughness, scaling, pruritus, erythema, erosion/fissure) (skin irritation): considerably improves symptoms of skin irritation

CC(=O)N[C@@H](CS)C(=O)O [NAC, N-Acetylcysteine]
neuropathy (diabetic neuropathy [7]): can inhibit diabetic neuropathy and protect against neuropathies caused by chemotherapy drugs
effect on diabetic neuropathy [8]: protective effects

vitamin E
nerve conduction [9]: mild to moderate defective nerve conduction was improved
disease progression and neuropathy (peripheral neuropathy): slowed disease progression and produced significant improvement in their neuropathy

COc1cc(/C=C/C(=O)CC(=O)/C=C/c2ccc(O)c(OC)c2)ccc1O [curcumin]
intracellular superoxide anion (O2) production (DM arterioles; DM arterioles, hydroethidine probe, low or high doses): significantly reduced
diabetes-induced vascular PKC-β11 expression (DM arterioles; high dose): diminished
Acetylcholine (ACh) responses (DM arterioles; low and high doses (30 and 300 mg/kg)): significantly improved

O=C(O)CCCCC1CCSS1 (stereo not drawn) [Alpha-lipoic acid]
nerve functionality and neuropathic pain (neuropathic pain): helped the recovery of nerve functionality and decrease neuropathic pain
acute microcirculation occlusion (microcirculation; in vivo): significantly improve
microcirculation (microcirculation; patients with diabetic polyneuropathy): significant improvement in microcirculation
sensory symptoms and pain of diabetic neuropathy (diabetic neuropathy [10]): rapidly and significantly reduces sensory symptoms and pain of diabetic neuropathy
pain, paresthesia, and numbness [11]: reduced the pain, paresthesia, and numbness
time at which TSS improvement was noted ([12]; oral 600 milligrams and 1200 milligrams): 2 weeks
side effects ([12]; oral 600 to 1800 milligrams): dose-dependent increase in the incidence of nausea
time at which TSS improvement was noted ([12]; oral 1800 milligrams): the end of the first week
Total Symptom Score (TSS) ([12]; oral therapy, 600 to 1800 milligrams): significant improvement

O=C(O)c1cccnc1 [nicotinic acid]
outcome of treatment of “Burning Feet Syndrome” (“Burning Feet Syndrome” [1]): failed

Cc1ncc(C[n+]2csc(CCO)c2C)c(N)n1 [thiamine]
outcome of treatment of “Burning Feet Syndrome” (“Burning Feet Syndrome” [1]): failed

vitamin B12
patients with low B12 levels whose deficiency was corrected (vitamin B12 deficiency): ~50%

CC(=O)O[C@H](CC(=O)[O-])C[N+](C)(C)C [acetyl-L-carnitine]
chemotherapy-associated neuropathy [13]: can limit the neuropathy
nerve dysfunctions [14]: A number of nerve dysfunctions were corrected
effects on glucose, insulin, or free fatty acids levels (diabetic animals; diabetic animals): without any adverse effects
nerve conduction velocity (diabetic animals; diabetic animals): maintained near normal nerve conduction velocity
nerve regeneration (diabetic animals; diabetic nerve degeneration and neuropathy, after experimental injury): accelerated nerve regeneration
cardiac autonomic neuropathy [15]: appeared to help prevent or slow cardiac autonomic neuropathy
nerve conduction velocity and pain (diabetic neuropathy [16]): improved nerve conduction velocity and reduced pain
sural nerve fiber numbers and regenerating nerve fiber clusters ([17]; 52 weeks): significant improvement
vibratory perception ([17]; both studies): improved
pain ([17]; daily doses of 500 mg and 1000 mg, 52 weeks): significant reductions in pain

O=C(O)CCCC[C@@H]1SC[C@@H]2NC(=O)N[C@@H]21 [biotin]
paresthesias [18, 21]: free of paresthesias
walking distance without help [18, 21]: more than 300 meters
symptoms of peripheral neuropathy ([18]; within four to eight weeks after biotin administration): objective improvement

NCCS(=O)(=O)O [taurine]
severity of complications of diabetes (retina, neuron, kidney) [19]: diminishes the severity of complications

C/C(=C(\CCOP(=O)(O)O)SC(=O)c1ccccc1)N(C=O)Cc1cnc(C)nc1N [benfotiamine]
alcoholic polyneuropathy (alcoholic polyneuropathy; benfotiamine versus combination with vitamin B6 and B12): significant improvement
adverse effects (alcoholic polyneuropathy; double-blind study): no therapy-specific adverse effects
pain and co-ordination (alcoholic polyneuropathy; double-blind study): improvement was evident
therapeutic effectiveness [20]: most effective in large doses
